# From PMC7356761 (Molecules, 2020)
# Tests used:
# [1] = Biodistribution in normal ddY mice; format: in vivo, mouse; settings: i.v., 24 h
# Procedure: (§1) Male ddY mice (27–30 g, 6 weeks old) and female BALB/c nu/nu mice (12–17 g, 4 weeks old) were purchased from Japan SLC Inc. (Hamamatsu, Japan). The mice were housed in a cage with free access to food and water maintained at a constant temperature (23–25 °C) with a 12 h light/dark cycle. […] The tumor reached palpable size 2- and 3-weeks post-inoculation. Animal experiments were conducted in accordance with laboratory guidelines for the care and use of animals of Kanazawa University. The animal handling protocol was approved by the Kanazawa University Animal Care Committee (approval number: AP-163766). 3.10. Biodistribution Studies Mice were injected intravenously via the lateral tail vein with a saline solution of [^125I]10 (25 kBq, 100 μL) containing 1% tween-80 and 10% ethanol. The ddY mice were sacrificed at 10 min, 1, 4 and 24 h; meanwhile, the tumor-bearing mice were sacrificed at 1 and 4 h post injection. The selected tissues and organs were collected and weighed and their radioactivity was measured using an auto well gamma counter. […] The mice were sacrificed 1 h after the administration of radiotracer. The biodistribution data are expressed as percent injected dose per gram of tissue (% ID/g) along with the SD.
# [2] = Biodistribution in tumor-bearing mice, normal tissues; format: in vivo, mouse
# Procedure: as §1
# [3] = tested on: H1975 tumor; assay: Biodistribution in tumor-bearing mice, H1975 tumor; format: in vivo, mouse; settings: for effect of CO-1686 pretreatment on accumulation in H1975 tumor: excess dose CO-1686 (30 mg/kg i.p.) 1 h prior
# Procedure: as §1
# [4] = tested on: H1975 cells (L858R/T790M active mutant EGFR); assay: Cellular uptake study, H1975; format: cell-based, human
# Procedure: 3.8. Cellular Uptake Studies
# Then, the cell culture was incubated in a serum-free medium containing [^125I]10 (3.7 kBq/well) for 4 h. The medium from each well was removed and the cells were washed with 1 mL of ice-cold PBS. Finally, all cell fractions were lysed twice with 0.5 mL of 1 M NaOH aqueous solution. The radioactivity of every fraction was determined by an auto well gamma counter. Total cell protein was determined using the Bicinchoninic Acid (BCA) Protein Assay Kit (Nacalai) protocol, which uses bovine serum albumin as a standard reference. […]. All data were expressed as percent dose per milligram of protein (% dose/mg protein) ± SD.
# [5] = In vitro stability in PBS; format: physicochemical; settings: 0.1 M PBS pH 7.4, 37 °C
# Procedure: 3.7. In Vitro Stability Experiments
# The in vitro stability of [^125I]10 was examined in phosphate buffered saline (PBS) and mouse plasma. Briefly, [^125I]10 solution (50 µL) in a sealed tube containing 0.1 M PBS pH 7.4 (450 µL) was incubated at 37 °C for 1 and 24 h. After incubation, the purities of radiotracers were analyzed by RP-HPLC with mobile phase system water (A) and methanol (B), B: 70–100%, 20 min using a Cosmosil® 5C18 MSII (4.6 ID × 150 mm) column, a flow rate 1 mL/min. The column temperature was kept at 40 °C.
# [6] = Blocking (1 h), CO-1686 30 mg/kg i.p. 1 h prior
structure (smiles),measurement,setting,value
C=CC(=O)Nc1cc([125I])cc(Nc2nc(Nc3ccc(N4CCN(C(C)=O)CC4)cc3OC)ncc2C(F)(F)F)c1 [[^125I]10],"Biodistribution, Stomach",[1],0.08 (0.02) % ID/organ
same,"Biodistribution, Urine",[1],4.07 (0.83) % ID/g tissue
same,"Biodistribution, Blood",[2]; [6],1.79 (0.21) % ID/g tissue
same,"Biodistribution, Bone",[2]; [6],1.07 (0.36) % ID/g tissue
same,"Biodistribution, Brain",[2]; [6],0.10 (0.02) % ID/g tissue
same,"Biodistribution, Heart",[2]; [6],1.53 (0.58) % ID/g tissue
same,"Biodistribution, Kidney",[2]; [6],4.19 (1.28) % ID/g tissue
same,"Biodistribution, Large intestine",[2]; [6],8.96 (7.48) % ID/g tissue
same,"Biodistribution, Liver",[2]; [6],21.77 (2.83) % ID/g tissue
same,"Biodistribution, Lung",[2]; [6],3.40 (0.93) % ID/g tissue
same,"Biodistribution, Muscle",[2]; [6],1.09 (0.42) % ID/g tissue
same,"Biodistribution, Pancreas",[2]; [6],3.87 (0.87) % ID/g tissue
same,"Biodistribution, Small intestine",[2]; [6],60.68 (6.67) % ID/g tissue
same,"Biodistribution, Spleen",[2]; [6],2.81 (0.77) % ID/g tissue
same,"Biodistribution, Stomach",[2]; [6],1.44 (0.57) % ID/organ
same,"Biodistribution, Blood","[2]; i.v., 1 h",1.74 (0.18) % ID/g tissue
same,"Biodistribution, Bone","[2]; i.v., 1 h",0.50 (0.40) % ID/g tissue
same,"Biodistribution, Brain","[2]; i.v., 1 h",0.11 (0.08) % ID/g tissue
same,"Biodistribution, Heart","[2]; i.v., 1 h",1.46 (0.31) % ID/g tissue
same,"Biodistribution, Kidney","[2]; i.v., 1 h",5.26 (1.50) % ID/g tissue
same,"Biodistribution, Large intestine","[2]; i.v., 1 h",18.65 (19.88) % ID/g tissue
same,"Biodistribution, Liver","[2]; i.v., 1 h",28.12 (5.43) % ID/g tissue
same,"Biodistribution, Lung","[2]; i.v., 1 h",4.67 (0.85) % ID/g tissue
same,"Biodistribution, Muscle","[2]; i.v., 1 h",0.86 (0.21) % ID/g tissue
same,"Biodistribution, Pancreas","[2]; i.v., 1 h",1.99 (0.52) % ID/g tissue
same,"Biodistribution, Small intestine","[2]; i.v., 1 h",85.58 (7.68) % ID/g tissue
same,"Biodistribution, Spleen","[2]; i.v., 1 h",3.20 (0.62) % ID/g tissue
same,"Biodistribution, Stomach","[2]; i.v., 1 h",1.04 (0.36) % ID/organ
same,"Biodistribution, Blood","[2]; i.v., 4 h",0.77 (0.07) % ID/g tissue
same,"Biodistribution, Bone","[2]; i.v., 4 h",0.24 (0.20) % ID/g tissue
same,"Biodistribution, Brain","[2]; i.v., 4 h",0.04 (0.02) % ID/g tissue
same,"Biodistribution, Heart","[2]; i.v., 4 h",0.60 (0.67) % ID/g tissue
same,"Biodistribution, Kidney","[2]; i.v., 4 h",1.62 (0.26) % ID/g tissue
same,"Biodistribution, Large intestine","[2]; i.v., 4 h",144.21 (10.97) % ID/g tissue
same,"Biodistribution, Liver","[2]; i.v., 4 h",12.40 (1.06) % ID/g tissue
same,"Biodistribution, Lung","[2]; i.v., 4 h",1.02 (0.28) % ID/g tissue
same,"Biodistribution, Muscle","[2]; i.v., 4 h",0.27 (0.08) % ID/g tissue
same,"Biodistribution, Pancreas","[2]; i.v., 4 h",0.49 (0.12) % ID/g tissue
same,"Biodistribution, Small intestine","[2]; i.v., 4 h",9.82 (3.17) % ID/g tissue
same,"Biodistribution, Spleen","[2]; i.v., 4 h",0.71 (0.19) % ID/g tissue
same,"Biodistribution, Stomach","[2]; i.v., 4 h",0.48 (0.19) % ID/organ
same,effect of CO-1686 pretreatment on accumulation in H1975 tumor,[3],not inhibited
same,effect of CO-1686 pretreatment on accumulation in H1975 tumor,[3]; listed as [^125I]ICO1686,not reduced
same,tumor/blood ratio,[3]; tumor-bearing mice,approximately 1
same,"Biodistribution, H1975 tumor","[3]; tumor-bearing mice, Blocking (1 h), CO-1686 30 mg/kg i.p. 1 h prior",1.65 (0.64) % ID/g tissue
same,"Biodistribution, H1975 tumor","[3]; tumor-bearing mice, i.v., 1 h",1.77 (0.43) % ID/g tissue
same,"Biodistribution, H1975 tumor","[3]; tumor-bearing mice, i.v., 1 h, listed as [^125I]ICO1686",1.77 ± 0.43 % ID/g tissue
same,"Biodistribution, H1975 tumor","[3]; tumor-bearing mice, i.v., 4 h",0.43 (0.08) % ID/g tissue
same,cell uptake,"[4]; H1975, 4 h incubation",101.52 % dose/mg protein
same,cell uptake with blocking,"[4]; H1975, excess CO-1686 (100 µM)",45.61 % dose/mg protein
same,effect of gefitinib blocking on accumulation,"[4]; H1975, gefitinib 100 µM",did not reduce
same,stability in PBS,[5]; 24 h incubation,purity decreased gradually
same,stability in PBS,[5]; until 1 h,slightly decomposed
